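Grown in 96-well plates, cells were treated for 48 hours with each compound at five concentrations. Insufficient inhibition: endpoint recorded as highest concentration tested. GI50 = concentration required for 50% inhibition of growth.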 Calls of active or inactive are those of the source. No stated cut-off is given here; in the data, active = GI50 up to about 1.1 µM and inactive = higher.
What was measured:
Experiment in all cases: DTP human tumour cell line panel, 48 h
[1] = tested on: SW-620
[2] = tested on: SN12C
[3] = tested on: RXF 393
[4] = tested on: TK-10
[5] = tested on: SNB-75
[6] = tested on: UACC-62
[7] = tested on: HOP-18
[8] = tested on: ACHN
[9] = tested on: DMS-114
[10] = tested on: HL-60
[11] = tested on: M19-MEL
[12] = tested on: KM-20L2
[13] = tested on: UACC-257
[14] = tested on: HCT-116
[15] = tested on: SF-539
[16] = tested on: HT-29
[17] = tested on: SK-OV-3
[18] = tested on: OVCAR-4
[19] = tested on: NCI-H460
[20] = tested on: SK-MEL-5
[21] = tested on: OVCAR-3
[22] = tested on: MOLT-4
[23] = tested on: OVCAR-8
[24] = tested on: IGROV-1
[25] = tested on: SK-MEL-28
[26] = tested on: HCT-15
[27] = tested on: RPMI-8226
[28] = tested on: M14
[29] = tested on: NCI-H23
[30] = tested on: SNB-78
[31] = tested on: LXFL 529
[32] = tested on: CCRF-CEM
[33] = tested on: LOX IMVI
[34] = tested on: U-251
[35] = tested on: COLO 205
[36] = tested on: A549
[37] = tested on: SNB-19
[38] = tested on: XF498
[39] = tested on: HOP-92
[40] = tested on: CAKI-1
[41] = tested on: A498
[42] = tested on: K562
[43] = tested on: SF-295
[44] = tested on: EKVX
[45] = tested on: DMS-273
[46] = tested on: Malme-3M
[47] = tested on: NCI/ADR-RES
[48] = tested on: NCI-H226
[49] = tested on: SK-MEL-2
[50] = tested on: SF-268
[51] = tested on: DLD-1
[52] = tested on: UO-31
[53] = tested on: KM12
[54] = tested on: HOP-62
[55] = tested on: OVCAR-5
[56] = tested on: MCF7
[57] = tested on: HCC 2998
[58] = tested on: 786-0

For `O=C1CCC2COc3ccc(O)c1c32` (configuration not stated), the GI50 [1] was > 100 µM (inactive), the GI50 [2] was > 100 µM (inactive) and the GI50 [3] was > 100 µM (inactive). For the same molecule, the GI50 [4] was > 100 µM (inactive), the GI50 [5] was 77.6 µM (inactive) and the GI50 [6] was > 100 µM (inactive). For the same molecule, the GI50 [7] was > 100 µM (inactive), the GI50 [8] was > 100 µM (inactive) and the GI50 [9] was > 100 µM (inactive). For the same molecule, the GI50 [10] was > 100 µM (inactive), the GI50 [11] was > 100 µM (inactive) and the GI50 [12] was > 100 µM (inactive). For the same molecule, the GI50 [13] was > 100 µM (inactive), the GI50 [14] was > 100 µM (inactive) and the GI50 [15] was > 100 µM (inactive). For the same molecule, the GI50 [16] was > 100 µM (inactive), the GI50 [17] was > 100 µM (inactive) and the GI50 [18] was > 100 µM (inactive). For the same molecule, the GI50 [19] was > 100 µM (inactive), the GI50 [20] was > 100 µM (inactive) and the GI50 [21] was > 100 µM (inactive). For the same molecule, the GI50 [22] was > 100 µM (inactive), the GI50 [23] was > 100 µM (inactive) and the GI50 [24] was > 100 µM (inactive). For the same molecule, the GI50 [25] was > 100 µM (inactive), the GI50 [26] was > 100 µM and the GI50 [27] was > 100 µM (inactive). For the same molecule, the GI50 [28] was > 100 µM (inactive), the GI50 [29] was > 100 µM (inactive) and the GI50 [30] was > 100 µM (inactive). For the same molecule, the GI50 [31] was > 100 µM (inactive), the GI50 [32] was > 100 µM (inactive) and the GI50 [33] was > 100 µM (inactive). For the same molecule, the GI50 [34] was > 100 µM (inactive), the GI50 [35] was > 100 µM (inactive) and the GI50 [36] was > 100 µM (inactive). For the same molecule, the GI50 [37] was 24.1 µM (inactive), the GI50 [38] was > 100 µM (inactive) and the GI50 [39] was 79.3 µM (inactive). For the same molecule, the GI50 [40] was > 100 µM (inactive), the GI50 [41] was > 100 µM (inactive) and the GI50 [42] was > 100 µM (inactive). For the same molecule, the GI50 [43] was > 100 µM (inactive), the GI50 [44] was 51.2 µM (inactive) and the GI50 [45] was > 100 µM (inactive).
With `COc1ccc(OCC(C)(C)O)cc1` the GI50 [46] was > 100 µM (inactive), the GI50 [47] was > 100 µM (inactive) and the GI50 [1] was > 100 µM (inactive). For the same molecule, the GI50 [48] was > 100 µM (inactive), the GI50 [49] was > 100 µM (inactive) and the GI50 [2] was > 100 µM (inactive). The GI50 [3] was > 100 µM (inactive), the GI50 [5] was > 47 µM (inactive) and the GI50 [6] was > 100 µM (inactive). The GI50 [7] was > 100 µM (inactive), the GI50 [9] was > 100 µM (inactive) and the GI50 [10] was > 100 µM (inactive). For the same molecule, the GI50 [50] was > 100 µM (inactive), the GI50 [12] was > 100 µM (inactive) and the GI50 [13] was > 100 µM (inactive). For the same molecule, the GI50 [14] was > 100 µM (inactive), the GI50 [15] was > 100 µM (inactive) and the GI50 [16] was > 100 µM (inactive). For the same molecule, the GI50 [17] was > 100 µM (inactive), the GI50 [18] was > 62.8 µM (inactive) and the GI50 [19] was > 100 µM (inactive). For the same molecule, the GI50 [20] was > 100 µM (inactive), the GI50 [21] was > 100 µM (inactive) and the GI50 [22] was > 100 µM (inactive). The GI50 [23] was > 100 µM (inactive), the GI50 [24] was > 100 µM (inactive) and the GI50 [25] was > 100 µM (inactive). For the same molecule, the GI50 [26] was > 100 µM, the GI50 [27] was > 100 µM (inactive) and the GI50 [51] was > 100 µM (inactive). For the same molecule, the GI50 [29] was > 100 µM (inactive), the GI50 [52] was > 100 µM (inactive) and the GI50 [30] was > 100 µM (inactive). The GI50 [32] was > 100 µM (inactive), the GI50 [33] was > 100 µM (inactive) and the GI50 [34] was > 100 µM (inactive). The GI50 [35] was > 100 µM (inactive), the GI50 [36] was > 100 µM (inactive) and the GI50 [53] was > 100 µM (inactive). The GI50 [37] was > 100 µM (inactive), the GI50 [54] was > 100 µM (inactive) and the GI50 [55] was > 100 µM (inactive). The GI50 [56] was > 45.3 µM (inactive), the GI50 [38] was > 100 µM (inactive) and the GI50 [57] was > 100 µM (inactive). For the same molecule, the GI50 [39] was > 100 µM (inactive), the GI50 [40] was > 100 µM (inactive) and the GI50 [41] was > 100 µM (inactive). The GI50 [42] was > 100 µM (inactive), the GI50 [43] was > 100 µM (inactive) and the GI50 [44] was > 100 µM (inactive). The GI50 [45] was > 100 µM (inactive).
With `COc1ccc(CSc2nc3ccccc3nc2-c2cccs2)cc1` the GI50 [46] was > 100 µM (inactive), the GI50 [2] was > 100 µM (inactive) and the GI50 [5] was > 100 µM (inactive). The GI50 [7] was > 100 µM (inactive), the GI50 [8] was > 100 µM (inactive) and the GI50 [9] was 76 µM (inactive). For the same molecule, the GI50 [10] was 26.4 µM (inactive), the GI50 [50] was > 100 µM (inactive) and the GI50 [13] was 98.4 µM (inactive). The GI50 [14] was > 100 µM (inactive), the GI50 [15] was > 100 µM (inactive) and the GI50 [16] was > 100 µM (inactive). The GI50 [17] was > 100 µM (inactive), the GI50 [18] was > 100 µM (inactive) and the GI50 [21] was > 100 µM (inactive). The GI50 [22] was 56.2 µM (inactive), the GI50 [23] was > 100 µM (inactive) and the GI50 [25] was > 100 µM (inactive). For the same molecule, the GI50 [27] was > 100 µM (inactive), the GI50 [28] was > 100 µM (inactive) and the GI50 [29] was > 100 µM (inactive). For the same molecule, the GI50 [52] was > 100 µM (inactive), the GI50 [30] was > 100 µM (inactive) and the GI50 [32] was 15.2 µM (inactive). The GI50 [34] was > 100 µM (inactive), the GI50 [35] was > 100 µM (inactive) and the GI50 [36] was > 100 µM (inactive). For the same molecule, the GI50 [37] was > 100 µM (inactive), the GI50 [38] was > 100 µM (inactive) and the GI50 [39] was > 100 µM (inactive). The GI50 [42] was 30.7 µM (inactive), the GI50 [58] was > 100 µM (inactive) and the GI50 [43] was > 100 µM (inactive). For the same molecule, the GI50 [44] was > 100 µM (inactive) and the GI50 [45] was > 100 µM (inactive).

Source: ChEMBL document CHEMBL1201862, “PubChem BioAssay data set” (2004)
